Test results as given in patent US10709706B2, “Nuclear transport modulators and uses thereof” (Karyopharm Therapeutics Inc., priority 2015, dated 2020).

Legend:
Type in all cases: cell-based
MM1S cells = assay: MTT cell proliferation assay, MM1S cells; conditions: Homo sapiens, MM1.S, MM1S multiple myeloma cells, approximately 64-72 hours, 1 nM to 30 μM
Procedure: (§1) The MTT cell proliferation assay was used to study the cytotoxic properties of the compounds. The assay was performed according to the method described by Roche Molecular Biochemicals, with minor modifications. The assay is based on the cleavage of the tetrazolium salt, MTT, in the presence of an electron-coupling reagent. The water-insoluble formazan salt produced must be solubilized in an additional step. Cells grown in a 96-well tissue culture plate were incubated with the MTT solution for approximately 4 hours. After this incubation period, a water-insoluble formazan dye formed. After solubilization, the formazan dye was quantitated using a scanning multi-well spectrophotometer (ELISA reader). […] The cells were seeded at 5,000-10,000 cells in each well of 96-well plate in 100 μL of fresh culture medium and were allowed to attach overnight. The stock solutions of the compounds were diluted in 100 μL cell culture medium to obtain eight concentrations of each test compound, ranging from 1 nM to 30 μM. […] All optical densities were measured at 490 nm using a Vmax Kinetic Microplate Reader (Molecular Devices). In most cases, the assay was performed in duplicate and the results were presented as a mean percent inhibition to the negative control±SE. The following formula was used to calculate the percent of inhibition: Inhibition (%)=(1−(ODo/OD))×100.
(§2) The compounds were tested against Z138, MM1S and 3T3 cells. The Z138 cell line is a mature B-cell acute lymphoblastic leukemia cell line derived from a patient with chronic lymphocytic leukemia. The MM1S cell line was established from the peripheral blood of a human multiple myeloma patient. 3T3 cells are standard fibroblast cells; they were originally isolated from Swiss mouse embryo tissue.

Z138 cells = assay: MTT cell proliferation assay, Z138 cells; conditions: Homo sapiens, Z-138, approximately 64-72 hours, 1 nM to 30 μM
Procedure: as §1, §2

3T3 cells = assay: MTT cell proliferation assay, 3T3 cells; conditions: Mus musculus, NIH3T3, 3T3 fibroblast cells, approximately 64-72 hours, 1 nM to 30 μM
Procedure: as §1, §2

SMILES	IC50 (MM1S cells) [µM]	IC50 (Z138 cells) [µM]	IC50 (3T3 cells) [µM]
CCOC(=O)/C=C/c1cncc(-c2cc(C(F)(F)F)cc(C(F)(F)F)c2)n1 [Compound 101, ethyl (E)-3-(6-(3,5-bis(trifluoromethyl)phenyl)pyrazin-2-yl)acrylate]	> 30	> 30	> 30
CCOC(=O)/C(Br)=C/c1cncc(-c2cc(C(F)(F)F)cc(C(F)(F)F)c2)n1 [Compound 102, ethyl (Z)-3-(6-(3,5-bis(trifluoromethyl)phenyl)pyrazin-2-yl)-2-bromoacrylate]	0.1 to 5	0.1 to 5	> 30
NC(=O)/C(Br)=C/c1cncc(-c2cc(C(F)(F)F)cc(C(F)(F)F)c2)n1 [Compound 103, (Z)-3-(6-(3,5-bis(trifluoromethyl)phenyl)pyrazin-2-yl)-2-bromoacrylamide]	0.1 to 5	0.1 to 5	> 30
NC(=O)/C(=C\c1cncc(-c2cc(C(F)(F)F)cc(C(F)(F)F)c2)n1)c1cncnc1 [Compound 104, (Z)-3-(6-(3,5-bis(trifluoromethyl)phenyl)pyrazin-2-yl)-2-(pyrimidin-5-yl)acrylamide]	> 30	> 30	> 30
CCOC(=O)/C=C/c1ccnc(-c2cc(C(F)(F)F)cc(C(F)(F)F)c2)n1 [Compound 105, ethyl (E)-3-(2-(3,5-bis(trifluoromethyl)phenyl)pyrimidin-4-yl)acrylate]	> 30	> 30	> 30
CCOC(=O)C(Br)C(Br)c1ccnc(-c2cc(C(F)(F)F)cc(C(F)(F)F)c2)n1 (centres unmarked) [Compound 106, ethyl 3-(2-(3,5-bis(trifluoromethyl)phenyl)pyrimidin-4-yl)-2,3-dibromopropanoate]	0.1 to 5	0.1 to 5	> 30
NC(=O)/C(=C\c1ccnc(-c2cc(C(F)(F)F)cc(C(F)(F)F)c2)n1)c1cncnc1 [Compound 107, (Z)-3-(2-(3,5-bis(trifluoromethyl)phenyl)pyrimidin-4-yl)-2-(pyrimidin-5-yl)acrylamide]	0.1 to 5	5 to 30	> 30
COC(=O)/C(Br)=C\c1nccc(-c2cc(C(F)(F)F)cc(C(F)(F)F)c2)n1 [Compound 108, methyl (E)-3-(4-(3,5-bis(trifluoromethyl)phenyl)pyrimidin-2-yl)-2-bromoacrylate]	5 to 30	5 to 30	> 30
O=C(O)/C(=C/c1nccc(-c2cc(C(F)(F)F)cc(C(F)(F)F)c2)n1)c1cncnc1 [Compound 109, (E)-3-(4-(3,5-bis(trifluoromethyl)phenyl)pyrimidin-2-yl)-2-(pyrimidin-5-yl)acrylic acid]	> 30	> 30	> 30
NC(=O)/C(=C\c1nccc(-c2cc(C(F)(F)F)cc(C(F)(F)F)c2)n1)c1cncnc1 [Compound 110, (Z)-3-(4-(3,5-bis(trifluoromethyl)phenyl)pyrimidin-2-yl)-2-(pyrimidin-5-yl)acrylamide]	> 30	> 30	> 30
O=C(O)/C(=C/c1ccnc(-c2cc(C(F)(F)F)cc(C(F)(F)F)c2)n1)c1cncnc1 [Compound 111, (E)-3-(2-(3,5-bis(trifluoromethyl)phenyl)pyrimidin-4-yl)-2-(pyrimidin-5-yl)acrylic acid]	5 to 30	> 30	> 30
NC(=O)/C(=C/c1ccnc(-c2cc(C(F)(F)F)cc(C(F)(F)F)c2)n1)c1cncnc1 [Compound 112, (E)-3-(2-(3,5-bis(trifluoromethyl)phenyl)pyrimidin-4-yl)-2-(pyrimidin-5-yl)acrylamide]	0.1 to 5	0.1 to 5	> 30
NC(=O)/C(=C/c1nccc(-c2cc(C(F)(F)F)cc(C(F)(F)F)c2)n1)c1cncnc1 [Compound 113, (E)-3-(4-(3,5-bis(trifluoromethyl)phenyl)pyrimidin-2-yl)-2-(pyrimidin-5-yl)acrylamide]	> 30	> 30	> 30
NC(=O)/C(=C/c1cncc(-c2cc(C(F)(F)F)cc(C(F)(F)F)c2)n1)c1cncnc1 [Compound 114, (E)-3-(6-(3,5-bis(trifluoromethyl)phenyl)pyrazin-2-yl)-2-(pyrimidin-5-yl)acrylamide]	> 30	> 30	> 30
COC(=O)/C(Br)=C/c1cncc(-c2cc(C(F)(F)F)cc(C(F)(F)F)c2)n1 [Compound 115, methyl (Z)-3-(6-(3,5-bis(trifluoromethyl)phenyl)pyrazin-2-yl)-2-bromoacrylate]	0.1 to 5	0.1 to 5	5 to 30
COC(=O)/C(=C/c1cncc(-c2cc(C(F)(F)F)cc(C(F)(F)F)c2)n1)c1cncnc1 [Compound 116, methyl (E)-3-(6-(3,5-bis(trifluoromethyl)phenyl)pyrazin-2-yl)-2-(pyrimidin-5-yl)acrylate]	5 to 30	5 to 30	> 30
O=C(O)/C(=C/c1cncc(-c2cc(C(F)(F)F)cc(C(F)(F)F)c2)n1)c1cncnc1 [Compound 117, (E)-3-(6-(3,5-bis(trifluoromethyl)phenyl)pyrazin-2-yl)-2-(pyrimidin-5-yl)acrylic acid]	> 30	> 30	> 30
Cc1ccc(/C(=C\c2ccnc(-c3cc(C(F)(F)F)cc(C(F)(F)F)c3)n2)C(N)=O)cc1F [Compound 118, (E)-3-(2-(3,5-bis(trifluoromethyl)phenyl)pyrimidin-4-yl)-2-(3-fluoro-4-methylphenyl)acrylamide]	> 30	> 30	> 30
N#Cc1cncc(/C(=C\c2ccnc(-c3cc(C(F)(F)F)cc(C(F)(F)F)c3)n2)C(N)=O)c1 [Compound 119, (E)-3-(2-(3,5-bis(trifluoromethyl)phenyl)pyrimidin-4-yl)-2-(5-cyanopyridin-3-yl)acrylamide]	0.1 to 5	0.1 to 5	> 30
NC(=O)/C(=C/c1ccnc(-c2cc(C(F)(F)F)cc(C(F)(F)F)c2)n1)c1ccccc1 [Compound 120, (E)-3-(2-(3,5-bis(trifluoromethyl)phenyl)pyrimidin-4-yl)-2-phenylacrylamide]	> 30	> 30	> 30
NC(=O)/C(=C/c1ccnc(-c2cc(C(F)(F)F)cc(C(F)(F)F)c2)n1)c1cncc(F)c1 [Compound 121, (E)-3-(2-(3,5-bis(trifluoromethyl)phenyl)pyrimidin-4-yl)-2-(5-fluoropyridin-3-yl)acrylamide]	0.1 to 5	> 30	> 30
NC(=O)/C(=C/c1ccnc(-c2cc(C(F)(F)F)cc(C(F)(F)F)c2)n1)c1ccc(S(=O)(=O)C2CC2)cc1 [Compound 122, (E)-3-(2-(3,5-bis(trifluoromethyl)phenyl)pyrimidin-4-yl)-2-(4-(cyclopropylsulfonyl)phenyl)acrylamide]	5 to 30	0.1 to 5	> 30
NC(=O)/C(=C/c1ccnc(-c2cc(C(F)(F)F)cc(C(F)(F)F)c2)n1)c1csc2ccccc12 [Compound 123, (E)-2-(benzo[b]thiophen-3-yl)-3-(2-(3,5-bis(trifluoromethyl)phenyl)pyrimidin-4-yl)acrylamide]	> 30	> 30	> 30
Cc1noc(C)c1/C(=C\c1ccnc(-c2cc(C(F)(F)F)cc(C(F)(F)F)c2)n1)C(N)=O [Compound 124, (E)-3-(2-(3,5-bis(trifluoromethyl)phenyl)pyrimidin-4-yl)-2-(3,5-dimethylisoxazol-4-yl)acrylamide]	> 30	> 30	> 30
NC(=O)/C(=C/c1ccnc(-c2cc(C(F)(F)F)cc(C(F)(F)F)c2)n1)c1ccc(Cl)c(F)c1 [Compound 133, (E)-3-(2-(3,5-bis(trifluoromethyl)phenyl)pyrimidin-4-yl)-2-(4-chloro-3-fluorophenyl)acrylamide]		< 0.1	> 30
NC(=O)/C(=C/c1ccnc(-c2cc(C(F)(F)F)cc(C(F)(F)F)c2)n1)c1cccc(S(=O)(=O)N2CCC(F)(F)CC2)c1 [Compound 138, (E)-3-(2-(3,5-bis(trifluoromethyl)phenyl)pyrimidin-4-yl)-2-(3-((4,4-difluoropiperidin-1-yl)sulfonyl)phenyl)acrylamide]		0.1 to 5	> 30
NC(=O)/C(=C/c1ccnc(-c2cc(C(F)(F)F)cc(C(F)(F)F)c2)n1)c1cccc(S(=O)(=O)N2CC(F)(F)C2)c1 [Compound 139, (E)-3-(2-(3,5-bis(trifluoromethyl)phenyl)pyrimidin-4-yl)-2-(3-((3,3-difluoroazetidin-1-yl)sulfonyl)phenyl)acrylamide]	> 30	> 30	
N#Cc1ccccc1/C(=C\c1ccnc(-c2cc(C(F)(F)F)cc(C(F)(F)F)c2)n1)C(N)=O [Compound 154, (E)-3-(2-(3,5-bis(trifluoromethyl)phenyl)pyrimidin-4-yl)-2-(2-cyanophenyl)acrylamide]	0.1 to 5	> 30	
